In patent US9802941B2, “Compounds and methods for inhibiting histone demethylases” (Gilead Sciences, Inc., priority 2014, dated 2017):
Where two headings read alike, the source gives them in different places.

Tests used:
Format in all cases: biochemical
[1] = target: T1, PHF8 (KDM7) (Homo sapiens, UniProt Q9UPP1); experiment: Histone lysine demethylase AlphaLISA assay, PHF8
T1 construct: KDM7 (PHF8); BRIC; 1-1322; Bac
Protocol: (§1) The compounds of the application, or a pharmaceutically acceptable salt, or solvate, or prodrug thereof, are tested in an in vitro AlphaLISA assay. Enzymes are dissolved in enzyme buffer and incubated before they are added to DMSO solutions of compounds of the application, or a pharmaceutically acceptable salt, or solvate, or prodrug thereof, in enzyme buffer. The reaction mixture is then incubated for an additional period of time before substrate solution is added and then the resulting mixture again incubated. Acceptor beads and suspended Epigenetic Buffer from stock are added and the suspension is again incubated before a suspension of streptavidin donor beads in Epigenetic Buffer is added. After an additional period of incubation, the plates are read.
(§2) The ability of compounds of the application to inhibit the histone lysine demethylase activity in vitro of different enzymes was determined.
(§3) The reaction mixture was incubated for another 10 minutes before 5 μL of substrate solution was added and the resulting mixture was then incubated at room temperature. […] After incubation at room temperature in the dark, the plates were read.
(§4) Enzyme Buffer: 50 mM Hepes (pH 7.4-8.0), 0.003-0.01% Tween-20, 0.1% BSA; 5 μM (NH4)2Fe(SO4)2.

[2] = target: T2, KDM2B (FBXL10) (Homo sapiens, UniProt Q8NHM5); experiment: Histone lysine demethylase AlphaLISA assay, KDM2B
T2 construct: KDM2B; BPS,; 1-650; Bac; purchased BPS Bioscience, US; host or cells: baculovirus system
T2 sequence (Q8NHM5 1-650): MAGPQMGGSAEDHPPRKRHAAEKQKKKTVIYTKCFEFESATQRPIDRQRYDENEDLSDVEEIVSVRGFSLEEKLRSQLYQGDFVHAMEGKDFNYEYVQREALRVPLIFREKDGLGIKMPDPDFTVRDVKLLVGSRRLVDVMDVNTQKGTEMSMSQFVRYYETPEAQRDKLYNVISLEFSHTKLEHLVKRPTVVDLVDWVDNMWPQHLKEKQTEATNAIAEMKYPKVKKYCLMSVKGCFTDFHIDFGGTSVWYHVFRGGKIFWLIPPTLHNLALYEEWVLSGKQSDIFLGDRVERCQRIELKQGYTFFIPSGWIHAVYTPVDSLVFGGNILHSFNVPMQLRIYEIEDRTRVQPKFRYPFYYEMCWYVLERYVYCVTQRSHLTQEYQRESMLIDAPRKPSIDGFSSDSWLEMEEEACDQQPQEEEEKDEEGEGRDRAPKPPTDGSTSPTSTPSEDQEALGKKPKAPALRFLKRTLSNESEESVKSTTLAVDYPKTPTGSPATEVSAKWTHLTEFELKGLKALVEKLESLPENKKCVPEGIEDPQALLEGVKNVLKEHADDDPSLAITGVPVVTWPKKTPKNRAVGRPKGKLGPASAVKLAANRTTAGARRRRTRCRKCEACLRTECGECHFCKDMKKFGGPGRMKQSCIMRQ
Protocol: as §1, §2, §3, §4

[3] = target: T3, KDM4C (JMJD2C) (Homo sapiens, UniProt Q9H3R0); experiment: Histone lysine demethylase AlphaLISA assay, KDM4C
T3 construct: KDM4C; BRIC, Denmark; 1-349; E. coli; host or cells: E. coli
T3 sequence (Q9H3R0 1-349): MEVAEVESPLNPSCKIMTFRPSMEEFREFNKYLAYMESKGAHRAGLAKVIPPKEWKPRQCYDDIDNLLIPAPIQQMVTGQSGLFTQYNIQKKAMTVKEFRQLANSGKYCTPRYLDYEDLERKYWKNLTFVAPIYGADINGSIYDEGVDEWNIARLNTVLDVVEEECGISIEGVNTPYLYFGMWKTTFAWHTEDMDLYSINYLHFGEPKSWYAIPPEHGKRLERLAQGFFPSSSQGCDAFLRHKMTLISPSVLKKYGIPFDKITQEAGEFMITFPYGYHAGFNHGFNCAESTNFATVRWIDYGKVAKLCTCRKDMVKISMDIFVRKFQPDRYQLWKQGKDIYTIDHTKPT
Protocol: as §1, §2, §3, §4

[4] = target: T4, KDM5B (PLU-1) (Homo sapiens, UniProt Q9UGL1); experiment: Histone lysine demethylase AlphaLISA assay, KDM5B
T4 construct: BRIC; 1-809; E. coli; host or cells: E. coli
T4 sequence (Q9UGL1 1-809): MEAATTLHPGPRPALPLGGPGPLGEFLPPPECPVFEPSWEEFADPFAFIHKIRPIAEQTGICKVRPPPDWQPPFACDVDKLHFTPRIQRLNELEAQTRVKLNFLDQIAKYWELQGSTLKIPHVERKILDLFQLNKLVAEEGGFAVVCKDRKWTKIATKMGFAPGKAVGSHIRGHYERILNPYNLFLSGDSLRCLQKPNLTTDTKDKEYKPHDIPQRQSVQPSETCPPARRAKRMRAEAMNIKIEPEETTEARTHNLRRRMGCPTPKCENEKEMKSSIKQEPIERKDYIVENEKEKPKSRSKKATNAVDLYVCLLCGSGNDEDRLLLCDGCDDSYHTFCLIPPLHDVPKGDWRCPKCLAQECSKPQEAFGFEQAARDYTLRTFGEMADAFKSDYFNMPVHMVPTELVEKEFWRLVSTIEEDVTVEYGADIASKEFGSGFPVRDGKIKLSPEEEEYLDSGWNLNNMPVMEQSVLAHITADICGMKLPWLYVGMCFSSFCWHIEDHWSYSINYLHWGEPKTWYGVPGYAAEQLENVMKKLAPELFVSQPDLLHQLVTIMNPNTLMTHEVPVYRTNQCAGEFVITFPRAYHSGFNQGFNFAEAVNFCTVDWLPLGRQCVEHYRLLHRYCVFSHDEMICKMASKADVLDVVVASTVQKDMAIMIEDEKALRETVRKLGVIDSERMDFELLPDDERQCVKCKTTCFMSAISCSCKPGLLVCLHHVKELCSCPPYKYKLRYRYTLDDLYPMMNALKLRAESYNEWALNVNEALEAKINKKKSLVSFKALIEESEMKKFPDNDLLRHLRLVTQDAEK
Protocol: as §1, §2, §3, §4

[5] = AlphaLISA, in vitro, read-out: HDME Inhibition PHF8
[6] = AlphaLISA, in vitro, read-out: HDME Inhibition KDM2B
[7] = AlphaLISA assay, read-out: HDME Inhibition KDM4C (IC50)
[8] = AlphaLISA, in vitro, read-out: HDME Inhibition KDM4C
[9] = AlphaLISA, in vitro, read-out: HDME Inhibition KDM5B
[10] = AlphaLISA assay, read-out: HDME Inhibition KDM5B (IC50)
[11] = AlphaLISA assay, read-out: HDME Inhibition PHF8 (IC50)
[12] = AlphaLISA assay, read-out: HDME Inhibition KDM2B (IC50)

T1 sequence (Q9UPP1 37-440 limits assumed): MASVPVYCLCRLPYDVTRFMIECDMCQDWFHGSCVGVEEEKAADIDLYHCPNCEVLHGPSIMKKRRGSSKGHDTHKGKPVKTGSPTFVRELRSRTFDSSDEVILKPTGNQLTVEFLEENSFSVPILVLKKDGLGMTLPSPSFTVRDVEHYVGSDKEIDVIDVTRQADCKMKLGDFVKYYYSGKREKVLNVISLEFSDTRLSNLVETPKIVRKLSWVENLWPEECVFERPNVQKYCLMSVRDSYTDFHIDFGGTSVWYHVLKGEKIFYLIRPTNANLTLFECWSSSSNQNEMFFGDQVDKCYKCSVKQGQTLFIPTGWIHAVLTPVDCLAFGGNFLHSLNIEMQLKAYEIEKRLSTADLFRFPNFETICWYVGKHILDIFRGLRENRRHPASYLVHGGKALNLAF

Compound	IC50 [1, 5] [µM]	IC50 [2, 6] [µM]	IC50 [3, 7] [µM]	IC50 [3, 8] [µM]	IC50 [4, 9] [µM]	IC50 [4, 10] [µM]	IC50 [1, 11] [µM]	IC50 [2, 12] [µM]	IC50 [4] [µM]
Cc1cc(OCc2ccccc2)c(CCNCc2cc(C(=O)O)cc(CO)n2)nn1 [Compound 87, 2-[({2-[4-(benzyloxy)-6-methylpyridazin-3-yl]ethyl}amino)methyl]-6-(hydroxymethyl)pyridine-4-carboxylic acid]	2.3	1.7	> 10	> 10	> 10	> 10			
O=C(O)c1cc(CO)nc(CNCc2nnc(-c3ccccc3)n2CCCc2ccccc2)c1 [Compound 99, 2-(hydroxymethyl)-6-[({[5-phenyl-4-(3-phenylpropyl)-4H-1,2,4-triazol-3-yl]methyl}amino)methyl]pyridine-4-carboxylic acid]	> 10	> 10	> 10	> 10			> 10	> 10	8.41
COc1ccc(OCc2ccccc2)c(CNCc2cc(C(=O)O)cc(CO)n2)n1 [Compound 93, 2-[({[3-(Benzyloxy)-6-methoxypyridin-2-yl]methyl}amino)methyl]-6-(hydroxymethyl)pyridine-4-carboxylic acid]	1.48	0.032	> 10	> 10	> 10	> 10			
Cc1cc(C(=O)O)cc(CNCc2nnc(C)n2-c2cccc(Cl)c2)n1 [Compound 58, 2-[({[4-(3-chlorophenyl)-5-methyl-4H-1,2,4-triazol-3-yl]methyl}amino)methyl]-6-methylpyridine-4-carboxylic acid]	> 10	> 10			> 10	> 10	> 10	> 10	
Cc1cc(C(=O)O)cc(CNCc2nocc2COc2ccc(F)cc2)n1 [Compound 76, 2-[({[4-(4-fluorophenoxymethyl)-1,2-oxazol-3-yl]methyl}amino)methyl]-6-methylpyridine-4-carboxylic acid]	> 10	4.73			> 10	> 10	> 10		

Continued, values first:

IC50 [1, 5] [µM]	IC50 [2, 6] [µM]	IC50 [3, 7] [µM]	IC50 [3, 8] [µM]	IC50 [4, 9] [µM]	IC50 [4, 10] [µM]	IC50 [1, 11] [µM]	IC50 [2, 12] [µM]	IC50 [4] [µM]	Compound
0.673	0.251	> 10	> 10	6.2					COc1ccc(CC(C)C)c(CNCc2cc(C(=O)O)cc(CO)n2)n1 [Compound 84, 2-(hydroxymethyl)-6-[({[6-methoxy-3-(2-methylpropyl)pyridin-2-yl]methyl}amino)methyl]pyridine-4-carboxylic acid]
0.4	0.145			> 10	> 10				COc1ccc(OCCc2ccccc2)c(CNCc2cc(C(=O)O)cc(C)n2)n1 [Compound 104, 2-[({[6-methoxy-3-(2-phenylethoxy)pyridin-2-yl]methyl}amino)methyl]-6-methylpyridine-4-carboxylic acid]
> 10	2.75					> 10			Cc1cc(C(=O)O)cc(CNCCc2ncccc2C2=CCCC2)n1 [Compound 59, 2-[({2-[3-(cyclopent-1-en-1-yl)pyridin-2-yl]ethyl}amino)methyl]-6-methylpyridine-4-carboxylic acid]
3.81	1.86			> 10	> 10				COc1ccc(CC(C)C)c(CNCc2cc(C(=O)O)cc(C)n2)n1 [Compound 74, 2-[({[6-methoxy-3-(2-methylpropyl)pyridin-2-yl]methyl}amino)methyl]-6-methylpyridine-4-carboxylic acid]
2.77	3.1			> 10	> 10				COC(=O)c1cn(Cc2ccc(F)cc2)c(CNCc2cc(C(=O)O)cc(CO)n2)n1 [Compound 106, 2-{[({1-[(4-fluorophenyl)methyl]-4-(methoxycarbonyl)-1H-imidazol-2-yl}methyl)amino]methyl}-6-(hydroxymethyl)pyridine-4-carboxylic acid]
